The assay addresses T1, human complement factor D (Homo sapiens, UniProt P00746).
T1 construct: purchased R&D Systems 1824-SE
As to the kind of experiment: In vitro enzyme inhibition (Z-Lys-SBzl/DTNB absorbance assay). The settings on record: Complement Factor D (R&D Systems), substrate Z-Lys-SBzl, A405 nm; read-out: CFD IC50. Type of assay: biochemical. The essentials: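 Factor D (6.25 ng/μL before addition) preincubated 5 min RT with compound (8 points from 50 μM, 6-fold, 0.5% DMSO final) in 50 mM Tris/HCl pH 7.5, 1 M NaCl, then Z-Lys-SBzl/DTNB added (200 μM each before addition). A405 read kinetically every 30 s for 60 min; IC50 from variable-slope fit, controls with and without enzyme.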
T1 sequence (P00746 26-253): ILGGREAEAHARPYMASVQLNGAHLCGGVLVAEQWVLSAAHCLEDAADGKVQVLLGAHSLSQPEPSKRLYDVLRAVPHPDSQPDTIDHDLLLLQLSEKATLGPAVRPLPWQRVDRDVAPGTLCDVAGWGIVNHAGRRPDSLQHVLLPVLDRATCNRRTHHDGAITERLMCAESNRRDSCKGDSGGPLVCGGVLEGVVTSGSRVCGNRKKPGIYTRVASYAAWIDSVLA
Usually IC50 stands for the concentration needed to halve the response being measured. Turning to `NC(=O)c1nn(CC(=O)N2[C@@H]3CC[C@@H](C3)[C@H]2C(=O)Nc2cccc(Cl)c2F)c2cnccc12` [Example 36, 1-(2-((1R,3S,4S)-3-((3-chloro-2-fluorophenyl)carbamoyl)-2-azabicyclo[2.2.1]heptan-2-yl)-2-oxoethyl)-1H-pyrazolo[3,4-c]pyridine-3-carboxamide], the 50% inhibitory concentration (IC50) was in the range of 1 to 10 µM.
Take `NC(=O)c1nn(CC(=O)N2[C@@H]3CC[C@@H](C3)[C@H]2C(=O)Nc2cccc(Cl)n2)c2ccc([N+](=O)[O-])cc12` [Example 73, 1-(2-((1R,3S,4S)-3-((6-chloropyridin-2-yl)carbamoyl)-2-azabicyclo[2.2.1]heptan-2-yl)-2-oxoethyl)-5-nitro-1H-indazole-3-carboxamide]: the IC50 lay in the range of 1 to 10 µM.
For the molecule `Cc1cc(C)nc(NC(=O)[C@@H]2[C@H]3CC[C@H](C3)N2C(=O)Cn2nc(C(N)=O)c3ccccc32)c1` [Example 67, 1-(2-((1R,3S,4S)-3-((4,6-dimethylpyridin-2-yl)carbamoyl)-2-azabicyclo[2.2.1]heptan-2-yl)-2-oxoethyl)-1H-indazole-3-carboxamide 2,2,2-trifluoroacetate], the IC50 is greater than 10 µM.
The result for `NC(=O)c1nn(CC(=O)N2[C@H](C(=O)Nc3cncc(Cl)c3)C[C@@H]3CCC[C@@H]32)c2ccccc12` [Example 161, 1-(2-((2S,3aS,6aS)-2-((5-chloropyridin-3-yl)carbamoyl)hexahydrocyclopenta[b]pyrrol-1(2H)-yl)-2-oxoethyl)-1H-indazole-3-carboxamide] reads 1 to 10 µM.
As for `NC(=O)c1nn(CC(=O)N2[C@@H]3CC[C@@H](C3)[C@H]2C(=O)Nc2cccc(Cl)n2)c2ccc(N)cc12` [Example 75, 5-amino-1-(2-((1R,3S,4S)-3-((6-chloropyridin-2-yl)carbamoyl)-2-azabicyclo[2.2.1]heptan-2-yl)-2-oxoethyl)-1H-indazole-3-carboxamide], the IC50 lay in the range of 0.1 to 1 µM.
Regarding `NC(=O)c1nn(CC(=O)N2[C@H]3CC[C@H](C3)[C@@H]2C(=O)Nc2cccc(Cl)n2)c2ccccc12` [Example 19, 1-(2-((1S,3R,4R)-3-((6-chloropyridin-2-yl)carbamoyl)-2-azabicyclo[2.2.1]heptan-2-yl)-2-oxoethyl)-1H-indazole-3-carboxamide], the IC50 was in the range of 0.1 to 1 µM.
In the case of `NC(=O)c1nn(CC(=O)N2CC[C@H]2C(=O)NCc2cccc(Cl)c2F)cc1Br` [Example 187, (S)-4-bromo-1-(2-(2-((3-chloro-2-fluorobenzyl)carbamoyl)azetidin-1-yl)-2-oxoethyl)-1H-pyrazole-3-carboxamide], the IC50 was 1 to 10 µM.
For the molecule `NC(=O)c1nn(CC(=O)N2[C@@H]3CC[C@@H](C3)[C@H]2C(=O)NCc2c(Br)ccc(Cl)c2F)c2ccccc12` [Example 115, 1-(2-((1R,3S,4S)-3-((6-bromo-3-chloro-2-fluorobenzyl)carbamoyl)-2-azabicyclo[2.2.1]heptan-2-yl)-2-oxoethyl)-1H-indazole-3-carboxamide], the IC50 was in the range of 1 to 10 µM.
The result for `COC(=O)c1cc(Cl)nc(NC(=O)[C@@H]2[C@H]3CC[C@H](C3)N2C(=O)Cn2nc(C(N)=O)c3ccccc32)c1` [Example 103, methyl 2-((1R,3S,4S)-2-(2-(3-carbamoyl-1H-indazol-1-yl)acetyl)-2-azabicyclo[2.2.1]heptane-3-carboxamido)-6-chloroisonicotinate] reads 0.1 to 1 µM; that for `NC(=O)c1nn(CC(=O)N2[C@@H]3CC[C@@H](C3)[C@H]2C(=O)NCc2cccc(Cl)c2Cl)c2ccccc12` [Example 70, 1-(2-((1R,3S,4S)-3-((2,3-dichlorobenzyl)carbamoyl)-2-azabicyclo[2.2.1]heptan-2-yl)-2-oxoethyl)-1H-indazole-3-carboxamide], 0.1 to 1 µM.
The result for `NC(=O)c1nn(CC(=O)N2CCC3CC32C(=O)NCc2cccc(Cl)c2F)c2ccccc12` (centres unmarked) [Example 147, 1-(2-(1-((3-chloro-2-fluorobenzyl)carbamoyl)-2-azabicyclo[3.1.0]hexan-2-yl)-2-oxoethyl)-1H-indazole-3-carboxamide] reads greater than 10 µM; that for `NC(=O)c1nn(CC(=O)N2[C@H](C(=O)Nc3cccc(Cl)n3)C[C@@H]3CCC[C@@H]32)c2ccc(C3CC3)cc12` [Example 162, 1-(2-((2S,3aS,6aS)-2-((6-chloropyridin-2-yl)carbamoyl)hexahydrocyclopenta[b]pyrrol-1(2H)-yl)-2-oxoethyl)-5-cyclopropyl-1H-indazole-3-carboxamide], 0.1 to 1 µM.
The result for `COc1ccc2c(c1)c(C(C)=O)nn2CC(=O)N1[C@H](C(=O)Nc2cccc(Cl)n2)C[C@@H]2CCC[C@@H]21` [Example 175, (2S,3aS,6aS)-1-(2-(3-acetyl-5-methoxy-1H-indazol-1-yl)acetyl)-N-(6-chloropyridin-2-yl)octahydrocyclopenta[b]pyrrole-2-carboxamide] reads 0.1 to 1 µM; that for `NC(=O)c1nn(CC(=O)N2[C@H]3CC[C@H](C3)[C@@H]2C(=O)Nc2cccc(C(F)(F)F)n2)c2ccccc12` [Example 17, 1-(2-oxo-2-((1S,3R,4R)-3-((6-(trifluoromethyl)pyridin-2-yl)carbamoyl)-2-azabicyclo[2.2.1]heptan-2-yl)ethyl)-1H-indazole-3-carboxamide], 1 to 10 µM.
On to `NC(=O)c1nn(CC(=O)N2[C@@H]3CC[C@@H](C3)[C@H]2C(=O)Nc2cccc(C3CC3)n2)c2cnccc12` [Example 4, 1-(2-((1R,3S,4S)-3-((6-cyclopropylpyridin-2-yl)carbamoyl)-2-azabicyclo[2.2.1]heptan-2-yl)-2-oxoethyl)-1H-pyrazolo[3,4-c]pyridine-3-carboxamide], for which the concentration for half-maximal inhibition (IC50) was in the range of 1 to 10 µM.
As to `NC(=O)c1nn(CC(=O)N2[C@@H]3CC[C@@H](C3)[C@H]2C(=O)NCc2cccc(Cl)n2)c2ccccc12` [Example 52, 1-(2-((1R,3S,4S)-3-(((6-chloropyridin-2-yl)methyl)carbamoyl)-2-azabicyclo[2.2.1]heptan-2-yl)-2-oxoethyl)-1H-indazole-3-carboxamide], the IC50 is greater than 10 µM.
Take `NC(=O)Cc1nn(CC(=O)N2[C@@H]3CC[C@@H](C3)[C@H]2C(=O)Nc2cccc(Cl)n2)c2ccccc12` [Example 94, (1R,3S,4S)-2-(2-(3-(2-amino-2-oxoethyl)-1H-indazol-1-yl)acetyl)-N-(6-chloropyridin-2-yl)-2-azabicyclo[2.2.1]heptane-3-carboxamide]: the IC50 was 1 to 10 µM.
Turning to `NC(=O)c1cc(Cl)nc(NC(=O)[C@@H]2[C@H]3CC[C@H](C3)N2C(=O)Cn2nc(C(N)=O)c3ccccc32)c1` [Example 106, 1-(2-((1R,3S,4S)-3-((4-carbamoyl-6-chloropyridin-2-yl)carbamoyl)-2-azabicyclo[2.2.1]heptan-2-yl)-2-oxoethyl)-1H-indazole-3-carboxamide], the IC50 was in the range of 0.1 to 1 µM.
For `NC(=O)c1nn(CC(=O)N2[C@@H]3CC[C@@H](C3)[C@H]2C(=O)Nc2cccc(Cl)n2)c2ccc(F)cc12` [Example 62, 1-(2-((1R,3S,4S)-3-((6-chloropyridin-2-yl)carbamoyl)-2-azabicyclo[2.2.1]heptan-2-yl)-2-oxoethyl)-5-fluoro-1H-indazole-3-carboxamide], the IC50 was in the range of 0.1 to 1 µM.
The result for `NC(=O)CC(NC(=O)[C@@H]1[C@H]2CC[C@H](C2)N1C(=O)Cn1nc(C(N)=O)c2ccccc21)c1cccc(Cl)c1F` (stereo partly drawn) [Example 144, 1-(2-((1R,3S,4S)-3-((3-amino-1-(3-chloro-2-fluorophenyl)-3-oxopropyl)carbamoyl)-2-azabicyclo[2.2.1]heptan-2-yl)-2-oxoethyl)-1H-indazole-3-carboxamide] reads 1 to 10 µM; that for `CC(=O)c1nn(CC(=O)N2[C@H](C(=O)Nc3cccc(Cl)n3)C[C@@H]3CCC[C@@H]32)c2ccc(F)cc12` [Example 183, (2S,3aS,6aS)-1-(2-(3-acetyl-5-fluoro-1H-indazol-1-yl)acetyl)-N-(6-chloropyridin-2-yl)octahydrocyclopenta[b]pyrrole-2-carboxamide], 1 to 10 µM.
With `NC(=O)c1nn(CC(=O)N2[C@H](C(=O)Nc3cccc(Cl)c3F)C[C@@H]3CCC[C@@H]32)c2ccccc12` [Example 158, 1-(2-((2S,3aS,6aS)-2-((3-chloro-2-fluorophenyl)carbamoyl)hexahydrocyclopenta[b]pyrrol-1(2H)-yl)-2-oxoethyl)-1H-indazole-3-carboxamide] the figure was 0.1 to 1 µM.
As to `NC(=O)c1nn(CC(=O)N2[C@@H]3CC[C@@H](C3)[C@H]2C(=O)Nc2cccc(-c3ccccc3F)n2)c2ccccc12` [Example 46, 1-(2-((1R,3S,4S)-3-((6-(2-fluorophenyl)pyridin-2-yl)carbamoyl)-2-azabicyclo[2.2.1]heptan-2-yl)-2-oxoethyl)-1H-indazole-3-carboxamide], the IC50 was greater than 10 µM.
On to `Cc1ccc2c(c1)c(C(N)=O)nn2CC(=O)N1[C@@H]2CC[C@@H](C2)[C@H]1C(=O)NCc1cccc(Cl)c1F` [Example 60, 1-(2-((1R,3S,4S)-3-((3-chloro-2-fluorobenzyl)carbamoyl)-2-azabicyclo[2.2.1]heptan-2-yl)-2-oxoethyl)-5-methyl-1H-indazole-3-carboxamide], for which the IC50 lay in the range of 0.1 to 1 µM.
Consider `CC(=O)N1CCCN(C(=O)Cn2nc(C(N)=O)c3ccccc32)C(C(=O)NCc2cccc(Cl)c2F)C1` (centres unmarked) [Example 34, 1-(2-(4-acetyl-2-((3-chloro-2-fluorobenzyl)carbamoyl)-1,4-diazepan-1-yl)-2-oxoethyl)-1H-indazole-3-carboxamide], for which the IC50 is greater than 10 µM.
With `N#Cc1ccc2c(c1)c(C(N)=O)nn2CC(=O)N1[C@@H]2CC[C@@H](C2)[C@H]1C(=O)Nc1cccc(Cl)n1` [Example 81, 1-(2-((1R,3S,4S)-3-((6-chloropyridin-2-yl)carbamoyl)-2-azabicyclo[2.2.1]heptan-2-yl)-2-oxoethyl)-5-cyano-1H-indazole-3-carboxamide] the figure was 0.1 to 1 µM.

(Values after patent US20190127366A1 (LifeSci Pharmaceuticals, Inc., priority 2015, published 2019).)
